Series [1] can be described thus: Antioxidant activity assessed as free radical scavenging activity incubated for 30 mins under dark condition by microplate reader analysis. Format: functional.
Series [2] has as its system MCF7. Description: Cytotoxicity against human MCF7 cells assessed as cell growth inhibition. The format is functional, cell-based.
In series [3] the test system is HepG2. Description: Cytotoxicity against human HepG2 cells assessed as cell growth inhibition. The format is functional.
A short description of series [4]: Cytotoxicity against human HM02 cells assessed as cell growth inhibition. The format is functional.
The target in series [5] is Prostaglandin G/H synthase 2 (Homo sapiens) (UniProt P35354). Description: Inhibition of COX2 (unknown origin) at 20 nM relative to control.
A further series concerns P388. Briefly: Cytotoxicity against mouse P388 cells assessed as cell growth inhibition measured after 72 hrs by MTT assay. Format: functional, cell-based.
Series [6] concerns HL-60. Briefly: Antiproliferative activity against human HL-60 cells assessed as cell growth inhibition measured after 72 hrs by CCK-8 assay. Format: functional, cell-based. To be noted: HL-60, 72 h. On the technique in general: Tetrazolium assays rely on reduction of a dye to a coloured formazan, in cell work by metabolically active cells.
The subject of series [7] is A549. Description: Cytotoxicity against human A549 cells assessed as cell growth inhibition incubated for 48 hrs by CCK-8 assay. The format is functional, cell-based. To be noted: A549, 48 h.
Another series deals with HCT-116. Briefly: Cytotoxicity against human HCT-116 cells assessed as cell growth inhibition incubated for 48 hrs by CCK-8 assay. Format: functional, cell-based. Conditions: HCT-116, 48 h.
In the next series the test system is A-375. Description: Cytotoxicity against human A-375 cells assessed as cell growth inhibition by MTT assay. Format: functional, cell-based.
Series [8] concerns A549. Briefly: Cytotoxicity against human A549 cells assessed as cell growth inhibition by MTT assay. Format: functional, cell-based.
Series [9] concerns MCF7. Description: Cytotoxicity against human MCF7 cells assessed as cell growth inhibition by MTT assay. The format is functional, cell-based.
Series [10] deals with HepG2. Briefly: Cytotoxicity against human HepG2 cells assessed as cell growth inhibition by MTT assay. Format: functional, cell-based.
The nature of series [11]: Toxicity in brine shrimp assessed as induction of lethality. Conditions: artemia salina; read-out: LD50 (the source's name).
In series [12] the test system is Trypanosoma brucei brucei. Description: Antitrypanosomal activity against Trypanosoma brucei brucei GUTat3.1 assessed as parasite growth inhibition measured after 24 hrs by alamar blue staining based analysis. The format is functional, organism-based. To be noted: GUTat3.1, 24 h. (In general: Resazurin is reduced to fluorescent resorufin, in cell work by metabolically active cells.)

Series [13] can be described thus: Antiproliferative activity against human Pancreatic cancer cell assessed as cell growth inhibition measured after 24 hrs by CCK-8 assay. The format is functional, cell-based.
Series [14] deals with A549. Description: Cytotoxicity against human A549 cells assessed as cell growth inhibition measured after 72 hrs by MTT assay. The format is functional, cell-based. Conditions: A549, 72 h.
Series [15] relates to HL-60. Briefly: Cytotoxicity against human HL-60 cells assessed as cell growth inhibition measured after 72 hrs by MTT assay. The format is functional, cell-based. Conditions: HL-60, 72 h.
Series [16] can be described thus: Antioxidant activity assessed as free radical scavenging activity incubated for 30 mins by microplate reader analysis. Format: functional.
Another series relates to Staphylococcus aureus. Description: Antibacterial activity against Staphylococcus aureus ATCC 25923 assessed as bacterial growth inhibition. The format is functional, organism-based.
The target in series [17] is Angiotensin-converting enzyme (Homo sapiens, UniProt P12821). Description: Inhibition of ACE (unknown origin) using hippuryl-histidyl-leucine as substrate pre-incubated with compound for 10 mins followed by substrate addition measured after 60 mins by HPLC analysis.
The test system of the next series is HeLa. Briefly: Cytotoxicity against human HeLa cells assessed as cell growth inhibition by MTT assay. The format is functional, cell-based.

Converted amounts (≈) assume the structure as drawn.

Prostaglandin G/H synthase 2 (Homo sapiens), sequence (P35354 whole entry, looked up): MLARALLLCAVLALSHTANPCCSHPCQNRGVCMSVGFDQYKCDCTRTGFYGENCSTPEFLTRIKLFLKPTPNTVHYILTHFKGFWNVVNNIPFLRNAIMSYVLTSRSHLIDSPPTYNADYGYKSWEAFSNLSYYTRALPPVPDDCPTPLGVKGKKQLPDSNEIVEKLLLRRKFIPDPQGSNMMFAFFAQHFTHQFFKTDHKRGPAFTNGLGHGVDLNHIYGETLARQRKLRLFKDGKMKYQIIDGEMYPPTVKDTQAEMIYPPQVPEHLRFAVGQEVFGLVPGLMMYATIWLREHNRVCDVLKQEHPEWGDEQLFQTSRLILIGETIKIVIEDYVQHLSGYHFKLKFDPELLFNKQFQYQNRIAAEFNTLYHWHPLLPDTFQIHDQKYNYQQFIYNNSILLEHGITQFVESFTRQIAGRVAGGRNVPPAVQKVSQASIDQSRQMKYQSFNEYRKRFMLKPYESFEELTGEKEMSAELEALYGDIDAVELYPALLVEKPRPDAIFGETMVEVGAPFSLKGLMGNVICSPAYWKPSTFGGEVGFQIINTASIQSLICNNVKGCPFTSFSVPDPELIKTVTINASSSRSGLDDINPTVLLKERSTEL
Angiotensin-converting enzyme, sequence (P12821 whole entry): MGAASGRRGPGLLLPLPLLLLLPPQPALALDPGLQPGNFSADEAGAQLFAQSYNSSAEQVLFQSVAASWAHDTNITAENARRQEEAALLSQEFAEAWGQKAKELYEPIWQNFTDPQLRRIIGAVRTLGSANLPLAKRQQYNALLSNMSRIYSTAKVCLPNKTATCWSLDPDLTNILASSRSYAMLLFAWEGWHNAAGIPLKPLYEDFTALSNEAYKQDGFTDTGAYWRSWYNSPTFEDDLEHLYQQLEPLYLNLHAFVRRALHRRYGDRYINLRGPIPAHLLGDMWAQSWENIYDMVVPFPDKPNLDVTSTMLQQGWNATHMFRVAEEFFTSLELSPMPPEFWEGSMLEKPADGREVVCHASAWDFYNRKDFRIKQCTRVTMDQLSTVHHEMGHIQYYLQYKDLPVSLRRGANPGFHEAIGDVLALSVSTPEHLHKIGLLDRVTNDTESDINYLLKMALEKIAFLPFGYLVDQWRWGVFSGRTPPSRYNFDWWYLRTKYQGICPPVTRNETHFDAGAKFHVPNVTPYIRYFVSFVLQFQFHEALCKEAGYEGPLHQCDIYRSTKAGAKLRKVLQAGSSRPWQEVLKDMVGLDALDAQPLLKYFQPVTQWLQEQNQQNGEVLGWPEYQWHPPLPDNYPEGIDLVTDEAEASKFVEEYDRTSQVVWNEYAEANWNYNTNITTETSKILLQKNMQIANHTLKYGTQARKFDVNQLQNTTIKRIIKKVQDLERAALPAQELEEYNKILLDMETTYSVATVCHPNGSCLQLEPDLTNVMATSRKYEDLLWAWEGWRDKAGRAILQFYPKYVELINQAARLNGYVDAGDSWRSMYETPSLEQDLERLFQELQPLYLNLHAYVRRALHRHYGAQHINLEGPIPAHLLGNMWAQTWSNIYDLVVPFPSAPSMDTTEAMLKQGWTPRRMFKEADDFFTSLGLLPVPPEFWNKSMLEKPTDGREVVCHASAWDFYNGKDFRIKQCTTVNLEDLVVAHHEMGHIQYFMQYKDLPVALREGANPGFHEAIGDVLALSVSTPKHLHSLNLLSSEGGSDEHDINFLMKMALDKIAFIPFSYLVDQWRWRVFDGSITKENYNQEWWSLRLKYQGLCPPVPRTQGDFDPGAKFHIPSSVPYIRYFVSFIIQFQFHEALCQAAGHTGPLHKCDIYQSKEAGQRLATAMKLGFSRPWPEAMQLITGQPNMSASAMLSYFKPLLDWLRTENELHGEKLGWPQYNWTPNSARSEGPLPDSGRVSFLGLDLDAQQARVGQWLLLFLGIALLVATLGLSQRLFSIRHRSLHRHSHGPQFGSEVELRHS

Usually IC50 stands for the concentration at which inhibition is half-maximal. As for `C/C=C/C=C/CCc1c(O)ccc(O)c1COC`, the half-maximal inhibitory concentration (IC50) in [1] is 17.6 µM.
What is called GI50 is the concentration at which growth is held to half of that of the control. Turning to `CC[C@H](C)CCC[C@H]1CCCCC(=O)O1`, the GI50 (with MCF7 [2]; in the series on HepG2 [3]; in [4]) was 0.11 µg/mL (≈ 0.518 µM) throughout.
The inhibition is the share of the control response that was lost under treatment. Low readings indicate a weak effect, high ones a strong effect. In series [5], `CC(C)=CCc1cc(C[C@@]2(CC=C(C)C)OC(=O)C(O)C2c2ccccc2)ccc1O` (stereo partly drawn) returned an inhibition of 66.3%.
Turning to `C=CC(C)(C)c1[nH]c2ccccc2c1/C=C1\NC(=O)[C@]2(C[C@H](C)C=C[C@@H]2CCc2c(O)cc(CC=C(C)C)c(O)c2C=O)NC1=O` (stereo in doubt), in the series with P388 (p388), the IC50 turned out to be 2.5 µM.
As to `C=C1C(=O)CC2OC(=O)C(=C(O)C2CC)CCC2(C)CC(C)C(O2)C(C)C1OC` (stereo not drawn), the half-maximal inhibitory concentration (IC50) in series [1] was 2.4 µM.
Consider `COc1nc(C/C=C(\C)C/C=C/C(C)=C/[C@@H](C)/C=C(\C)[C@H](C)O)c(C)c(O)c1OC`, for which, in the series on HL-60 [6], the IC50 is under 0.1 µM.
As to `C[C@@H]1O[C@@H](Oc2ccc(-c3cc(=O)c4ccc(O[C@H]5C[C@H](O)[C@H](O)[C@H](C)O5)cc4o3)cc2)C[C@H](O)[C@@H]1O`, the half-maximal inhibitory concentration (IC50) with A549 [7] was determined as 13.5 µg/mL (≈ 26.2 µM); with HCT-116 it was 13.5 µg/mL.
For the compound `COc1ccc(C[C@@H]2NC(=O)[C@@]34OC(=O)O/C=C/[C@@](C)(O)C(=O)[C@@H](C)C/C=C/[C@H]3[C@@H]3O[C@]3(C)[C@@H](C)[C@@H]24)cc1`, the IC50 in the series on A-375, with A549 [8], with MCF7 [9] and with HepG2 [10] was 0.47 µM in each case.
As for `CCC/C=C/[C@@H]1Cc2cc(O)c(C)c(O)c2C(=O)O1`, in [11], the LC50 is 18.6 µg/mL (≈ 70.9 µM).
Regarding `C=C1CCC(C(C)C)C2/C=C(\C(=O)OC)CC/C=C(/C(=O)O)C(O)CC12` (stereo not drawn), in the series on HCT-116, the IC50 was 38.4 µM.
As for `CC(=O)/C(=C\c1ccc(O)cc1)OC(Cc1c[nH]c2ccccc12)C(=O)O` (stereo not drawn), the IC50 in [12] is 5.21 µM.
Take `COC(C)[C@H]1[C@H]2[C@H](C[C@H]1C)[C@H]1C[C@H]3/C=C/C(=O)C4=C(O)[C@@H](CCCNC(=O)/C=C\C[C@@H]3[C@H]1[C@@H]1O[C@@H]12)NC4=O` (stereo partly drawn): in [13], the IC50 is 1.3 µM.
Compound `O=C(CNC(=O)c1ccccc1-n1c(=O)[nH]c2ccccc2c1=O)c1ccccc1` yielded an inhibition in [5] of over 65%.
With `CC1(C)C=Cc2c(ccc3c4c(n(O)c23)C(C)(C)[C@H]2C[C@]35CCCN3C(=O)[C@@]2(C4)NC5=O)O1`, the IC50 with A549 [14] was 1.88 µM; in the series on HL-60 [15], 4.45 µM.
On to `C/C=C/[C@H](O)[C@H](C)/C=C(C)/C=C/C/C(C)=C/Cc1[nH]c(OC)cc(=O)c1C`, for which the IC50 with HL-60 [6] is under 0.1 µM.
For `CC(=O)OCCCCNC(=O)c1ccc(O)c(O)c1`, in series [16], the IC50 is 4.7 µM.
On to `CC1=CC(=O)[C@H]2C(C)(C)CCC[C@]2(C)[C@@]1(O)C=O`, for which, in the series on P388 (Mus musculus, P388, 72 h), the concentration for half-maximal inhibition (IC50) was 8.7 µM.
In the case of `CCCC1C(=O)C2CCC3(C)CC(C)C(O3)C(O)/C=C(\C)C(=O)CC1OC2=O` (stereo not drawn), the IC50 in series [1] came to 2.4 µM.
As to `O=C1OC(Cc2ccc(O)cc2)C(c2ccc(O)cc2)C1O` (stereo not drawn), the IC50 with Staphylococcus aureus turned out to be 17.4 µM.
`C[C@@H]1O[C@@H](Oc2ccc3c(c2)OCC(c2ccc(O)cc2)C3=O)C[C@H](O)[C@@H]1O` (stereo partly drawn): the IC50 was 13.5 µg/mL (≈ 34.9 µM) in the series on A549 [7] and 13.5 µg/mL in the series with HCT-116.
As to `C[C@@H]1O[C@@H](Oc2ccc(C3COc4cc(O)ccc4C3=O)cc2)C[C@H](O)[C@@H]1O` (stereo partly drawn), the results for the IC50 with A549 [7] and in the series with HCT-116 were 13.5 µg/mL (≈ 34.9 µM) and 13.5 µg/mL, respectively.
Regarding `CC(=O)C[C@@]1(O)C(=O)C2=C3O[C@H](C)C(C)(C)[C@]3(O)C(=O)c3c(C)cc(O)c(c32)C1=O`, the IC50 in [17] stood at 3.1 µM.
With `CCC(=O)OCc1c(OCC=C(C)C)c(C)cc(OC)c1C(=O)c1c(O)ccc2c1OC(C)(C)C=C2`, the IC50 in the series on HeLa was 9.2 µM.
For the compound `O=C(NCCCO)c1ccc(O)c(O)c1`, in series [16], the IC50 stood at 4.7 µM.
Turning to `CCCCC[C@@H]1Cc2cc(O)cc(O)c2C(=O)O1`, the LC50 in series [11] stood at 36.4 µg/mL (≈ 145 µM).
Take `C=C1C(O)[C@@H]2/C=C/C[C@H](C)C(=O)[C@](C)(O)/C=C/OC(=O)O[C@]23C(=O)N[C@@H](Cc2ccc(OC)cc2)[C@@H]3[C@@H]1C` (stereo partly drawn): the IC50 in the series on A-375, in the series with A549 [8], in the series with MCF7 [9] and with HepG2 [10] was 0.47 µM in each case.

The record behind these values is ChEMBL document CHEMBL5107956, “Natural products from mangrove sediments-derived microbes: Structural diversity, bioactivities, biosynthesis, and total synthesis” (Eur J Med Chem, 2022).
